{"source": "patent US9504256B2", "about": "“Fabrication of magnetic nanoparticles” (University of South Carolina, priority 2013, dated 2016)", "tested_on": "Staphylococcus aureus ATCC 25423", "experiment": "Disk diffusion assay", "format": "cell-based", "settings": "ATCC25423, 12 μg PenG, read-out: inhibition zone diameter", "method": "The PMAA grafted magnetic nanoparticles were used to non-covalently attach the beta-lactam antibiotic penicillin-G (PenG) and subsequently tested for activity against bacteria. Escherichia coli (Gram-negative) and Staphylococcus aureus (Gram-positive) were selected as the target bacteria. The disk diffusion assay of PenG-nanoparticle complex was conducted with a control group of free PenG of the same dose (12 μg PenG). […] Thus, PMAA grafted magnetic nanoparticles enhanced the bioactivity of penG against bacteria when the nanoparticles were physically bound with PenG. Without wishing to be bound by any particular theory, it is believed that the enhanced inhibition activity was due to the locally high concentrations of antibiotics physically attached to PMAA grafted magnetic nanoparticles, which overwhelms the resistance of bacterial strains. The magnetic properties also offer a valuable stimulus technique to direct the nanoparticles in complicated bacterial environments, such as biofilms, while free antibiotic are not able to access cells in the sticky extracellular polymeric substances (EPS) of biofilms.\nEscherichia coli ATCC 25922 and Staphylococcus aureus ATCC 25423 were allowed to grow in 10 mL of tryptic soy broth (TSB) at 37° C. overnight to an optical density of 0.8 (OD600=0.8) and then diluted 10-fold. 0.1 mL of the diluted culture was used to inoculate an agar plate. […]"}
{"smiles": "CC1(C)S[C@@H]2[C@H](NC(=O)Cc3ccccc3)C(=O)N2[C@H]1C(=O)O", "note": "[free PenG, penicillin-G]", "values": [{"measurement": "zone of inhibition at 12 µg/disc", "value": 18, "unit": "mm"}]}
